This is an account of results in ChEMBL document CHEMBL1145525, “Discovery of antiandrogen activity of nonsteroidal scaffolds of marketed drugs” (Proc Natl Acad Sci U S A, 2007).

Calls of active or inactive are those of the source. The rule behind the calls is not given here. A value given as a limit tells only on which side of the number the result lay.

One experiment concerns PC-3. The experiment in a line: Cytotoxicity against human PC3 cells upto 10 uM by SRB assay. In kind it is functional, cell-based. Background: The SRB assay estimates cell density from bound dye.
The test system of experiment [1] is LNCaP. Description: Increase in prostate specific antigen expression level in human LNCaP cells at 1 uM. The experiment is classed as functional, cell-based.
In experiment [2] the test system is LNCaP. The experiment in a line: Reduction of prostate specific antigen expression level in human LNCaP cells at 10 uM. In kind it is functional. The arrangement: scale not given: the % may be the effect or the level left.
The next experiment deals with HeLa. Description: Effect on translocation of androgen receptor from cytoplasm to nucleus in human HeLa cells at 1 uM in presence of dihydrotestosterone. In kind it is functional.
The target in experiment [3] is D(2) dopamine receptor (Homo sapiens) (UniProt P14416). Description: Displacement of [3H]spiperone from human dopamine D2L receptor expressed in CHO FlpIn cells upto 1 uM. The experiment is classed as cell-based. Background: In a radioligand displacement assay an active substance lowers the binding of a labelled ligand.
D(2) dopamine receptor (Homo sapiens), sequence (P14416 whole entry): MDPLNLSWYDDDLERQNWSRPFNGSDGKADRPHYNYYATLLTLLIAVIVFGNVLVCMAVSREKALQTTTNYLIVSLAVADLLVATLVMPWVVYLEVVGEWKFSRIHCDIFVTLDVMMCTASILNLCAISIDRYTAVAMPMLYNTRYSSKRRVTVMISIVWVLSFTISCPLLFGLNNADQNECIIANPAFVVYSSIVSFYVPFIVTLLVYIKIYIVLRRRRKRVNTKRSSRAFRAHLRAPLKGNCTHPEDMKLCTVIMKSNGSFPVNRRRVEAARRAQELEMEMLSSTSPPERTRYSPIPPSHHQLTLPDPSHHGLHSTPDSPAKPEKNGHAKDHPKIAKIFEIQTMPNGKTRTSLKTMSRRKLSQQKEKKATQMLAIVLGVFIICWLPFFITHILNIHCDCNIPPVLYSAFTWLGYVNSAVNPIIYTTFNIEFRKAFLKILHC
Experiment [4] concerns the target 5-hydroxytryptamine receptor 2A (Homo sapiens) (UniProt P28223). The experiment in a line: Displacement of [3H]ketanserin from human dopamine 5HT2A receptor expressed in CHO-K1 cells upto 1 uM. The experiment is classed as cell-based.
Experiment [5] has as its target T1, 5-hydroxytryptamine receptor 2C (Homo sapiens) (UniProt P28335).
T1 sequence (whole entry): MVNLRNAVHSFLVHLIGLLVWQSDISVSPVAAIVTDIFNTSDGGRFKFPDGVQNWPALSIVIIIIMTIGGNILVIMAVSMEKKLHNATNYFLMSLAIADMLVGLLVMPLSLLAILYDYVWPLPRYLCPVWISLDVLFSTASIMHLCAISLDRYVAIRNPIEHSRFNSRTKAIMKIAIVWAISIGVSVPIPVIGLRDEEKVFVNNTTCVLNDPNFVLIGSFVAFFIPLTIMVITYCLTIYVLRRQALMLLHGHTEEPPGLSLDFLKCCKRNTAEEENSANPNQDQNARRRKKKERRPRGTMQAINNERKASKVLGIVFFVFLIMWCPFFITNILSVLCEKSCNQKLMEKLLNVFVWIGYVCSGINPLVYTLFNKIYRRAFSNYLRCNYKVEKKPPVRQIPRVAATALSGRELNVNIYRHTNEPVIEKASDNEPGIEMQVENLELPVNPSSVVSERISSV
Description: Displacement of [3H]mesulergine from human dopamine 5HT2C receptor expressed in CHO-K1 cells upto 1 uM. The experiment is classed as cell-based.

Experiment [6] addresses T2, Androgen receptor (Homo sapiens, UniProt P10275).
T2 sequence (P10275 whole entry): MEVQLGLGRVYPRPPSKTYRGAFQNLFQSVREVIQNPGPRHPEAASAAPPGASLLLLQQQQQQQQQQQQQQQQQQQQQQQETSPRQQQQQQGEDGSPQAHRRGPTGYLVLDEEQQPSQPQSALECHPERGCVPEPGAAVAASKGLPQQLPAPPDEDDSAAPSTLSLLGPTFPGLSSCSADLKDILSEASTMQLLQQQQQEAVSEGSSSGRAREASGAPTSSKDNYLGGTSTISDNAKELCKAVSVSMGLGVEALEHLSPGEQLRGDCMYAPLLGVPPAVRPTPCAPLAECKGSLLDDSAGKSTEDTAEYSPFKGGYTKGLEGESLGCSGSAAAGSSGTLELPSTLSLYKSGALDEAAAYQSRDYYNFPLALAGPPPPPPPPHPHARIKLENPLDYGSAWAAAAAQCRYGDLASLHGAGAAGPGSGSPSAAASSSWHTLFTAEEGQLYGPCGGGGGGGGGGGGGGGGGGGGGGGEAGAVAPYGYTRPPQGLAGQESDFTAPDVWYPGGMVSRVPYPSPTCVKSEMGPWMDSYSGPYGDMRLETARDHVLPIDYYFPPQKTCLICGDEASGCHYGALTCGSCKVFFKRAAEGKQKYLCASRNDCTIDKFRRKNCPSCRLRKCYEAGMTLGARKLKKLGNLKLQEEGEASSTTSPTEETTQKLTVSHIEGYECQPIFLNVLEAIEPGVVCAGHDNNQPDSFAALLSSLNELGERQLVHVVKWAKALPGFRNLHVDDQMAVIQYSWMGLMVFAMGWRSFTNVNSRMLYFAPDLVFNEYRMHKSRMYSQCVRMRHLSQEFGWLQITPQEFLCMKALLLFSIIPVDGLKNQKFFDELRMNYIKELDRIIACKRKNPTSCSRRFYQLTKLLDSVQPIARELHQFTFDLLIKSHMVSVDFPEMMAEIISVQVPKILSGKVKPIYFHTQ
The experiment in a line: Inhibition of wild type androgen receptor expressed in CV1 cells assessed as dihydrotestosterone-stimulated transactivation by CAT reporter gene assay. The experiment is classed as cell-based, CV-1.

Experiment [7] deals with T3, Androgen receptor (Rattus norvegicus, UniProt P15207).
T3 sequence (P15207 whole entry): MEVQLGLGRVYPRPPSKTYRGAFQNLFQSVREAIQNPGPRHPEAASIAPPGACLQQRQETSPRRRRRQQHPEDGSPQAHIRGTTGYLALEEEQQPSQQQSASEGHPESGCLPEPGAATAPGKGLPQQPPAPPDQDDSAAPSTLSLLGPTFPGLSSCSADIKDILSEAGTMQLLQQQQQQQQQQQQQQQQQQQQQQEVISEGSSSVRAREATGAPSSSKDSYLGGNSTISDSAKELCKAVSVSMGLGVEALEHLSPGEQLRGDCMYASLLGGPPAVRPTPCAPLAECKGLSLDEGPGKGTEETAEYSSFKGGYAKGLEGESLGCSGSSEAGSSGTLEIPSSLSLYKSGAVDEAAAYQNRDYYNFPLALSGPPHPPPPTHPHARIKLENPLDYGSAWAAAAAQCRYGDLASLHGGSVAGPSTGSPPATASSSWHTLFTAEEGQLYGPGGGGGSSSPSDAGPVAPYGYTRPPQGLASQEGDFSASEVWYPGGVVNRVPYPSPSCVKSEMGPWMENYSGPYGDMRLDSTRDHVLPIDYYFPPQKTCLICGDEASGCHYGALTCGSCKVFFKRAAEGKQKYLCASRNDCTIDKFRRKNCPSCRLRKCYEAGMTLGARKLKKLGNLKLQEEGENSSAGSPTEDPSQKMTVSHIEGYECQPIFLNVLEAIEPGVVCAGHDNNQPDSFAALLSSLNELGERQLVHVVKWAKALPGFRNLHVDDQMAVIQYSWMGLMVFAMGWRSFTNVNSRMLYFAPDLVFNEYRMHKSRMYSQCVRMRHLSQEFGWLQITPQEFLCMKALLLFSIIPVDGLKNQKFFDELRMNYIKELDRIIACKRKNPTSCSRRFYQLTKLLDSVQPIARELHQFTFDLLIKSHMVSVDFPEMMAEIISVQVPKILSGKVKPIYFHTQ
Description: Displacement of [3H]mibolerone from rat androgen receptor.

5-hydroxytryptamine receptor 2A (Homo sapiens), sequence (P28223 whole entry): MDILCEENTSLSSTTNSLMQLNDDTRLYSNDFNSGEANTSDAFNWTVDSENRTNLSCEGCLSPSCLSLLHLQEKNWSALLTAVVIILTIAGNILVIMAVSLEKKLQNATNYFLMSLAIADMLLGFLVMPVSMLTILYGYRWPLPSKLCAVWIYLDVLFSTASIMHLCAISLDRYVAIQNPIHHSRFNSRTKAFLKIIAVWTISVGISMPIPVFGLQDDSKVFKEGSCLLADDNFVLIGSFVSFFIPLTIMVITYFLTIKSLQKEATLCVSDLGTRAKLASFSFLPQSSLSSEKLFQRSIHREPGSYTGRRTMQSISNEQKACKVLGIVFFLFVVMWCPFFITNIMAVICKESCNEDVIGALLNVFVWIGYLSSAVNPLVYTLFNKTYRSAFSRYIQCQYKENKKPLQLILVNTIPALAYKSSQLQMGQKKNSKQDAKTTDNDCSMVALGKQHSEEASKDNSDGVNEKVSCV

On to `O=C(CN1c2ccccc2Sc2ccc(C(F)(F)F)cc21)c1cccc2ccccc12`, for which the outcome (with PC-3; in [3]; in experiment [4]; in experiment [5]) was inactive. Moreover, in the experiment on LNCaP [1], the outcome was Active. Moreover, the Activity was >80% in the experiment on LNCaP [2] and >90% with HeLa. For the same molecule, the half-inhibitory concentration (IC50) (commonly the point on the concentration scale where inhibition reaches its midpoint) at Androgen receptor [6] (read-out: IC50) was 250 nM; on Androgen receptor [6] (read-out: Log IC50 (converted)), 251 nM.
With `N#Cc1ccc2c(c1)N(CCCN1CCC(O)CC1)c1ccccc1S2` [PERICIAZINE], the inhibition constant (Ki) (commonly the equilibrium dissociation constant of an inhibitor or competing ligand from its target) at Androgen receptor [7] is 3000 nM.
